Laboratory results published in patent publication EP2931723B1, “NEW BICYCLIC COMPOUNDS AND THEIR USE AS ANTIBACTERIAL AGENTS AND -LACTAMASE INHIBITORS” (Fedora Pharmaceuticals Inc., priority 2012, dated 2014).

Experiments:
Assay in all cases: MIC, antibacterial and synergistic activity
Format in all cases: cell-based
E. coli JMI 2692 = E. coli JMI 2692 (NDM-1, TEM-1, CTX-M-15)
Procedure: (§1) In the Tables 10 - 12, compounds herein disclosed were tested in combination with various antibiotics against metallo β-lactamase producing bacteria.

K. pneumo JMI 2697 = K. pneumo JMI 2697 (IMP-4 (Cpase))
Procedure: as §1

K. pneumo JMI 2693 = K. pneumo JMI 2693 (NDM-1 (Cpase))
Procedure: as §1

E. coli JMI 4080 = tested on: E. coli JMI 4080
K. pneumo JMI 2674 = K. pneumo JMI 2674 (CTX-M15 (ESBL)); substance alone
E.coli JMI 4103 = E.coli JMI 4103 (KPC-2, Tem-1, CMY-Type)
E. cloacae JMI 36 = E. cloacae JMI 36 (P99)
E. coli ATCC 25922 = E. coli ATCC 25922 (Wt)
K. pneumo JMI 2681 = K. pneumo JMI 2681 (Oxa-48 (Cpase))
A. baumanii JMI 2659 = A. baumanii JMI 2659 (Ges-14 (Cpase))
E. coli JMI 10767 = E. coli JMI 10767 (Wt)
K. pneumo JMI 4088 = K. pneumo JMI 4088 (KPC-3 (Cpase)); substance alone
E. coli JMI 11103 = tested on: E. coli JMI 11103
P. aerug JMI 149 = P. aerug JMI 149 (Bla+++D+)
E. coli JMI 2665 = tested on: E. coli JMI 2665
Procedure: In the Tables 10 - 12, compounds herein disclosed were tested in combination with various antibiotics against metallo β-lactamase producing bacteria. Table 3: Synergy of the inhibitor Ex. 1 (4 µg/mL) in combination with antibiotics

E. coli JMI 2671 = tested on: E. coli JMI 2671
Method in brief: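 Metallo β-lactamase-producing isolates were exposed to antibiotics plus a constant inhibitor level (4 µg/mL), and growth inhibition gave the MIC.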

P. aerug JMI 2686 = P. aerug JMI 2686 (KPC-2 (Cpase)); substance alone
E. coli JMI 10768 = E. coli JMI 10768 (CTX-M15 (Weak ESBL)); Meropenem + inhibitor at 4 µg/mL
K. pneumo JMI 4106 = K. pneumo JMI 4106 (KPC-3, TEM-1, SHV-12, SHV-141)
K.pneumo JMI 4109 = K.pneumo JMI 4109 (SHV-1, SHV-12); substance alone
E. coli JMI 10770 = details: Escherichia coli, JMI10770; E. coli JMI 10770 (CTX-M15 (Hyper ESBL)); substance alone
K. pneumo JMI 2673 = K. pneumo JMI 2673 (CTX-M14 (ESBL)); substance alone
[1] = Aztreonam + inhibitor at 4 µg/mL
[2] = Ceftazidime + inhibitor at 4 µg/mL
[3] = Meropenem + inhibitor at 4 µg/mL

O=C(NO[C@H]1CCCNC1)[C@@H]1CC[C@@H]2CN1C(=O)N2OS(=O)(=O)O [Ex. 2, (2S,5R)-7-Oxo-N-[(3S)-piperidin-3-yloxy] -6-(sulfooxy)-1,6-diazabicyclo[3.2.1]octane-2-carboxamide]
MIC Aztreonam + inhibitor (E. coli JMI 2692; [1]): ≤.062 µg/mL
MIC Ceftazidime + inhibitor (E. coli JMI 2692; [2]): ≤0.25 µg/mL
MIC Meropenem + inhibitor (E. coli JMI 2692; [3]): ≤.031 µg/mL
MIC (E. coli JMI 2692; Escherichia coli, JMI2692, substance alone, read-out: MIC): ≤ 0.5 µg/mL
MIC Aztreonam + inhibitor (K. pneumo JMI 2697; [1]): ≤.062 µg/mL
MIC Ceftazidime + inhibitor (K. pneumo JMI 2697; [2]): 0.5 µg/mL
MIC Meropenem + inhibitor (K. pneumo JMI 2697; [3]): ≤.031 µg/mL
MIC (K. pneumo JMI 2697; substance alone): 4 µg/mL
MIC Aztreonam + inhibitor (K. pneumo JMI 2693; [1]): ≤.062 µg/mL
MIC Ceftazidime + inhibitor (K. pneumo JMI 2693; [2]): ≤0.25 µg/mL
MIC Meropenem + inhibitor (K. pneumo JMI 2693; [3]): ≤.031 µg/mL
MIC (K. pneumo JMI 2693; substance alone): 4 µg/mL
MIC Aztreonam + inhibitor (E. coli JMI 4080; E. coli JMI 4080 (Tem-10), Aztreonam + inhibitor at 4 µg/mL): ≤.062 µg/mL
MIC Ceftazidime + inhibitor (E. coli JMI 4080; E. coli JMI 4080 (Tem-10), Ceftazidime + inhibitor at 4 µg/mL): ≤0.25 µg/mL
MIC Meropenem + inhibitor (E. coli JMI 4080; E. coli JMI 4080 (Tem-10), Meropenem + inhibitor at 4 µg/mL): ≤.031 µg/mL
MIC (E. coli JMI 4080; Escherichia coli, JMI4080, E. coli JMI 4080 (Tem-10), substance alone): 4 µg/mL
MIC (K. pneumo JMI 2674): > 16 µg/mL
MIC Aztreonam + inhibitor (E.coli JMI 4103; [1]): >4 µg/mL
MIC Ceftazidime + inhibitor (E.coli JMI 4103; [2]): 8 µg/mL
MIC Meropenem + inhibitor (E.coli JMI 4103; [3]): ≤.031 µg/mL
MIC (E.coli JMI 4103; Escherichia coli, JMI4103, substance alone): 8 µg/mL
MIC Aztreonam + inhibitor (E. cloacae JMI 36; [1]): 0.125 µg/mL
MIC Ceftazidime + inhibitor (E. cloacae JMI 36; [2]): ≤0.25 µg/mL
MIC Meropenem + inhibitor (E. cloacae JMI 36; [3]): 0.125 µg/mL
MIC (E. cloacae JMI 36; Enterobacter cloacae, JMI36, substance alone, read-out: MIC): > 16 µg/mL
MIC Aztreonam + inhibitor (E. coli ATCC 25922; [1]): ≤.062 µg/mL
MIC Ceftazidime + inhibitor (E. coli ATCC 25922; [2]): ≤0.25 µg/mL
MIC Meropenem + inhibitor (E. coli ATCC 25922; [3]): ≤.031 µg/mL
MIC (E. coli ATCC 25922; Escherichia coli, ATCC25922, substance alone): 1 µg/mL
MIC Aztreonam + inhibitor (K. pneumo JMI 2681; [1]): 2 µg/mL
MIC Ceftazidime + inhibitor (K. pneumo JMI 2681; [2]): 1 µg/mL
MIC Meropenem + inhibitor (K. pneumo JMI 2681; [3]): >2 µg/mL
MIC (K. pneumo JMI 2681; substance alone, read-out: MIC): > 16 µg/mL
MIC Aztreonam + inhibitor (A. baumanii JMI 2659; [1]): >4 µg/mL
MIC Ceftazidime + inhibitor (A. baumanii JMI 2659; [2]): >16 µg/mL
MIC Meropenem + inhibitor (A. baumanii JMI 2659; [3]): >2 µg/mL
MIC (A. baumanii JMI 2659; Acinetobacter baumannii, JMI2659, substance alone, read-out: MIC): > 16 µg/mL
MIC Meropenem + inhibitor (E. coli JMI 10767; [3]): ≤.031 µg/mL
MIC (E. coli JMI 10767; Escherichia coli, JMI10767, substance alone): 4 µg/mL
MIC (K. pneumo JMI 4088): 1 µg/mL
MIC Aztreonam + inhibitor (E. coli JMI 11103; E. coli JMI 11103 (CTX-M15 (Intermediate ESBL)), Aztreonam + inhibitor at 4 µg/mL): ≤.062 µg/mL
MIC Ceftazidime + inhibitor (E. coli JMI 11103; E. coli JMI 11103 (CTX-M15 (Intermediate ESBL)), Ceftazidime + inhibitor at 4 µg/mL): ≤0.25 µg/mL
MIC Meropenem + inhibitor (E. coli JMI 11103; E. coli JMI 11103 (CTX-M15 (Intermediate ESBL)), Meropenem + inhibitor at 4 µg/mL): ≤.031 µg/mL
MIC (E. coli JMI 11103; Escherichia coli, JMI11103, E. coli JMI 11103 (CTX-M15 (Intermediate ESBL)), substance alone): 4 µg/mL
MIC Aztreonam + inhibitor (P. aerug JMI 149; [1]): >4 µg/mL
MIC Ceftazidime + inhibitor (P. aerug JMI 149; [2]): 4 µg/mL
MIC Meropenem + inhibitor (P. aerug JMI 149; [3]): 0.5 µg/mL
MIC (P. aerug JMI 149; substance alone, read-out: MIC): > 16 µg/mL
MIC Aztreonam + inhibitor (E. coli JMI 2665; E. coli JMI 2665 (CMY-2 (Plasmid Cpase)), Aztreonam + inhibitor at 4 µg/mL): ≤.062 µg/mL
MIC Ceftazidime + inhibitor (E. coli JMI 2665; E. coli JMI 2665 (CMY-2 (Plasmid Cpase)), Ceftazidime + inhibitor at 4 µg/mL): ≤0.25 µg/mL
MIC Meropenem + inhibitor (E. coli JMI 2665; E. coli JMI 2665 (CMY-2 (Plasmid Cpase)), Meropenem + inhibitor at 4 µg/mL): ≤.031 µg/mL
MIC (E. coli JMI 2665; Escherichia coli, JMI2665): ≤ 0.5 µg/mL
MIC Aztreonam + inhibitor (E. coli JMI 2671; E. coli JMI 2671 (VIM-19 (Cpase)), Aztreonam + inhibitor at 4 µg/mL): ≤.062 µg/mL
MIC Ceftazidime + inhibitor (E. coli JMI 2671; E. coli JMI 2671 (VIM-19 (Cpase)), Ceftazidime + inhibitor at 4 µg/mL): 0.5 µg/mL
MIC Meropenem + inhibitor (E. coli JMI 2671; E. coli JMI 2671 (VIM-19 (Cpase)), Meropenem + inhibitor at 4 µg/mL): 0.125 µg/mL
MIC (E. coli JMI 2671; Escherichia coli, JMI2671, E. coli JMI 2671 (VIM-19 (Cpase)), substance alone): > 16 µg/mL
MIC (P. aerug JMI 2686): > 16 µg/mL
MIC Meropenem + inhibitor (E. coli JMI 10768): ≤.031 µg/mL
MIC Aztreonam + inhibitor (K. pneumo JMI 4106; [1]): ≤.062 µg/mL
MIC Ceftazidime + inhibitor (K. pneumo JMI 4106; [2]): ≤0.25 µg/mL
MIC Meropenem + inhibitor (K. pneumo JMI 4106; [3]): ≤.031 µg/mL
MIC (K. pneumo JMI 4106; substance alone, read-out: MIC): > 16 µg/mL
MIC (K.pneumo JMI 4109): 16 µg/mL
MIC (E. coli JMI 10770): 4 µg/mL
MIC (K. pneumo JMI 2673): > 16 µg/mL
